Source: PubChem BioAssay AID1963852 (Molecular Pharmacology Branch, DTP, NCI, 2024)
Where “and” joins values, the source holds several entries; their conditions need not be identical. Equal entries are not always repeated. One block for each compound: values may come before it.

System: 282377-053-R-J1-PDC complex spheroid viability
Test: Anticancer human tumor 282377-053-R-J1-PDC patient-derived colon adenocarcinoma cell line growth inhibition [POLQ]
Conditions: for viability, T/C: stronger effect = lower value
Experimental: Multicellular complex tumor spheroid response to Polymerase (POL) inhibitors (novobiocin, ART-558, RP6685) in combination with a variety of drugs and investigational agents in selected tumor cell lines
The POL inhibitors (novobiocin, ART-558, and RP6685) were evaluated both individually and in combination with standard of care and investigational anticancer small molecules within a complex spheroid model of solid tumors. . Complex spheroids include a stromal component modeled by human endothelial cells (HUVEC) and fibroblasts modeled by human mesenchymal stem cells (MSCs). The concentration ranges selected for each drug and investigational agent were based upon clinically achievable concentrations if the clinical Cmax of the agent was known.
Compounds. The drugs and investigational agents: novobiocin (NSC847541), ART-558 (NSC835418), RP-6685 (NSC848927), peposertib (NSC802822), ceralasertib (NSC780249), elimusertib (NSC800525), camonsertib (NSC841442), AZD-1390 (NSC803789), olaparib (NSC753686), talazoparib (NSC767125), rucaparib (NSC756644), sotorasib (NSC818433), MRTX-1133 (NSC836407), SN-38 (NSC673596), topotecan (NSC609699), epotoside (NSC141540), doxorubicin (NSC123127), gemcitabine (NSC613327), 5-fluorouracil (NSC19893), paclitaxel (NSC125973), vemurafenib (NSC761431), MSA-2 (NSC828583), SN-011 (NSC837082), adavosertib (NSC754352), prexasertib (NSC758257), carboplatin (NSC241240) and oxaliplatin (NSC266046), were obtained from the National Cancer Institute (NCI) Developmental Therapeutics Program Chemical Repository (21). The FDA-approved anticancer drug set is available from the Developmental Therapeutics Program at https://dtp.cancer.gov/organization/dscb/obtaining/. […] The stock solutions were prepared in dimethyl sulfoxide (DMSO, Sigma-Aldrich, St. Louis, MO, cat. D2650), except for the platinum compounds which were prepared in saline (Quality Biological, Gaithersburg, MD, cat. 114-055-101), at 800-fold the tested concentration and stored at -70 degrees C prior to their use. All drugs and investigational agents were tested over a range starting from a high concentration at or near the clinical Cmax and decreasing in half-log increments. If the clinical Cmax for an agent had not been determined, the highest concentration tested was 10 microM, except for SN-38, which was tested at a high concentration of 1 microM.
Cell Culture. All cells were maintained in an incubator at 37 degrees C and 5% CO2 with 95% humidity. The PDC lines were cultured according to standard operating procedures established by the NCI PDMR (https://pdmr.cancer.gov). Table 3 of the manuscript, lists the cell lines along with the number of the three cell types plated to form the mct-spheroids and media for tumor cell growth. After thawing, all PDC lines, except 997537-175-T-J1-PDC and 415267-285-R-J2-PDC, were cultured in Matrigel-coated flasks prepared with a working solution of 1X Ham's F-12 nutrient mix, without supplementation (Thermo Fisher Scientific, cat. 11765054), 100 U/mL penicillin-streptomycin (Thermo Fisher Scientific, cat. 15140122), and 2.5% Matrigel (Corning Inc., Corning, NY, cat. 354248) for the first three passages. The two PDC lines 997537-175-T-J1-PDC and 415267-285-R-J2-PDC were cultured on uncoated flasks. The 857933-349-R-J2-PDC line was cultured in 6C/Colon 1B media containing advanced DMEM/F-12 (Thermo Fisher Scientific, cat. 12634028), 10 mM HEPES (Thermo Fisher Scientific, cat. 15630080), 1X GlutaMAX supplement (Thermo Fisher Scientific, cat. 35050061), 0.1 mg/mL primocin (InvivoGen, San Diego, CA, cat. ant-pm-2), 10% defined fetal bovine serum, heat inactivated (HyClone Laboratories Inc., Logan, UT, cat. SH30070.03HI), 50% L-WRN conditioned media (ATCC, cat. CRL-3276), 1.25 mM N-Acetyl-L-cysteine (Sigma-Aldrich, cat. A9165), 10 mM nicotinamide (Sigma-Aldrich, cat. N0636), 1X B-27 supplement (Thermo Fisher Scientific, cat. 17504044), 1X N-2 supplement (Thermo Fisher Scientific, cat. […]

[1] = curve of first compound, second compound 0.0316 µM
[2] = curve of first compound, second compound 0.1 µM
[3] = curve of first compound, second compound 0.316 µM
[4] = curve of first compound, second compound 1 µM
[5] = curve of first compound, second compound 3.16 µM
[6] = curve of first compound, second compound 10 µM
[7] = second compound 0.0316 µM, first compound 0.0316 µM
[8] = second compound 0.0316 µM, first compound 0.1 µM
[9] = second compound 0.1 µM, first compound 0.0316 µM
[10] = second compound 0.1 µM, first compound 0.1 µM
[11] = second compound 0.316 µM, first compound 0.0316 µM
[12] = second compound 0.316 µM, first compound 0.1 µM
[13] = second compound 1 µM, first compound 0.0316 µM
[14] = second compound 1 µM, first compound 0.1 µM
[15] = second compound 3.16 µM, first compound 0.0316 µM
[16] = second compound 3.16 µM, first compound 0.1 µM
[17] = second compound 10 µM, first compound 0.0316 µM
[18] = second compound 10 µM, first compound 0.1 µM
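Also: spheroids exposed to compounds for seven days.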
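For viability, T/C in this document: 100% = DMSO vehicle control viability.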

IC50 (compound alone, run of 11/06/2023): > 10 µM
SMILES: Nc1ccc(C#CCN(C(=O)Cc2ncc(C(F)(F)F)cc2C(F)(F)F)c2ccc(F)cc2)nn1
viability, T/C (compound 0.0316 µM): 92.4% [middle of 13 runs]
viability, T/C (compound 1 µM): 99.5% [middle of 12 runs]
viability, T/C (compound 3.16 µM): 102% [middle of 13 runs]
viability, T/C (compound 10 µM): 114% [middle of 13 runs]

SMILES: CC1COCCN1c1cc(C2(S(C)(=N)=O)CC2)nc(-c2ccnc3[nH]ccc23)n1 (stereo unspecified) + Cc1cccc(N(C)C(=O)C2C(O)CCN2c2nc(C)cc(C(F)(F)F)c2C#N)c1
IC50 [1]: 7.38 µM
IC50 [2]: > 10 µM
IC50 [3]: > 10 µM
IC50 [4]: > 10 µM
IC50 [5]: > 10 µM
IC50 [6]: 5.13 µM
viability, T/C [7]: 113%
viability, T/C [8]: 81.7%
viability, T/C (second compound 0.0316 µM, first compound 0.316 µM): 108%
viability, T/C (second compound 0.0316 µM, first compound 1 µM): 77.6%
viability, T/C (second compound 0.0316 µM, first compound 3.16 µM): 66%
viability, T/C (second compound 0.0316 µM, first compound 10 µM): 44%
viability, T/C [9]: 98.3%
viability, T/C [10]: 103%
viability, T/C (second compound 0.1 µM, first compound 0.316 µM): 77.5%
viability, T/C (second compound 0.1 µM, first compound 1 µM): 84.4%
viability, T/C (second compound 0.1 µM, first compound 3.16 µM): 71.8%
viability, T/C (second compound 0.1 µM, first compound 10 µM): 54.3%
viability, T/C [11]: 91.3%
viability, T/C [12]: 101%
viability, T/C (second compound 0.316 µM, first compound 0.316 µM): 80.8%
viability, T/C (second compound 0.316 µM, first compound 1 µM): 89.5%
viability, T/C (second compound 0.316 µM, first compound 3.16 µM): 98.2%
viability, T/C (second compound 0.316 µM, first compound 10 µM): 50.2%
viability, T/C [13]: 107%
viability, T/C [14]: 111%
viability, T/C (second compound 1 µM, first compound 0.316 µM): 83.6%
viability, T/C (second compound 1 µM, first compound 1 µM): 86.1%
viability, T/C (second compound 1 µM, first compound 3.16 µM): 69.5%
viability, T/C (second compound 1 µM, first compound 10 µM): 52.5%
viability, T/C [15]: 93%
viability, T/C [16]: 84.4%
viability, T/C (second compound 3.16 µM, first compound 0.316 µM): 123%
viability, T/C (second compound 3.16 µM, first compound 1 µM): 114%
viability, T/C (second compound 3.16 µM, first compound 3.16 µM): 64.9%
viability, T/C (second compound 3.16 µM, first compound 10 µM): 49.7%
viability, T/C [17]: 90.6%
viability, T/C [18]: 73.6%
viability, T/C (second compound 10 µM, first compound 0.316 µM): 89.1%
viability, T/C (second compound 10 µM, first compound 1 µM): 80.2%
viability, T/C (second compound 10 µM, first compound 3.16 µM): 55.4%
viability, T/C (second compound 10 µM, first compound 10 µM): 42.7%

SMILES: Nc1ccn(C2OC(CO)C(O)C2(F)F)c(=O)n1 (stereo unspecified)
viability, T/C (compound 0.0316 µM): 74% and 105% and 75.7%
viability, T/C (compound 0.1 µM): 45.1% and 88.6% and 54.5%
viability, T/C (compound 0.316 µM): 30.1% and 97.8% and 29.1%
viability, T/C (compound 1 µM): 23.5% and 84.4% and 33.9%
viability, T/C (compound 3.16 µM): 23.9% and 84% and 18.8%
viability, T/C (compound 10 µM): 13.4% and 71.6% and 11.1%

SMILES: O=c1[nH]cc(F)c(=O)[nH]1
viability, T/C (compound 0.0316 µM): 91.8% and 103% and 97.7%
viability, T/C (compound 0.1 µM): 109% and 108% and 95%
viability, T/C (compound 0.316 µM): 86.7% and 107% and 114%
viability, T/C (compound 1 µM): 96.3% and 108% and 78.9%
viability, T/C (compound 3.16 µM): 68.2% and 98.1% and 75.9%
viability, T/C (compound 10 µM): 71% and 93.2% and 71.8%
IC50 (curve of compound): > 10 µM

SMILES: CC[C@@]1(O)C(=O)OCc2c1cc1n(c2=O)Cc2cc3c(CN(C)C)c(O)ccc3nc2-1 + COC1C(OC(N)=O)C(O)C(Oc2ccc3c(O)c(NC(=O)c4ccc(O)c(CC=C(C)C)c4)c(=O)oc3c2C)OC1(C)C
IC50 [1]: > 0.1 µM
IC50 [2]: > 0.1 µM
IC50 [3]: > 0.1 µM
IC50 [4]: > 0.1 µM
IC50 [5]: > 0.1 µM
IC50 [6]: > 0.1 µM
viability, T/C (second compound 0.0316 µM, first compound 0.000316 µM): 120%
viability, T/C (second compound 0.0316 µM, first compound 0.001 µM): 114%
viability, T/C (second compound 0.0316 µM, first compound 0.00316 µM): 119%
viability, T/C (second compound 0.0316 µM, first compound 0.01 µM): 99.6%
viability, T/C [7]: 112%
viability, T/C [8]: 72%
viability, T/C (second compound 0.1 µM, first compound 0.000316 µM): 130%
viability, T/C (second compound 0.1 µM, first compound 0.001 µM): 106%
viability, T/C (second compound 0.1 µM, first compound 0.00316 µM): 116%
viability, T/C (second compound 0.1 µM, first compound 0.01 µM): 115%
viability, T/C [9]: 106%
viability, T/C [10]: 64.6%
viability, T/C (second compound 0.316 µM, first compound 0.000316 µM): 106%
viability, T/C (second compound 0.316 µM, first compound 0.001 µM): 105%
viability, T/C (second compound 0.316 µM, first compound 0.00316 µM): 85.3%
viability, T/C (second compound 0.316 µM, first compound 0.01 µM): 100%
viability, T/C [11]: 110%
viability, T/C [12]: 69.3%
viability, T/C (second compound 1 µM, first compound 0.000316 µM): 101%
viability, T/C (second compound 1 µM, first compound 0.001 µM): 112%
viability, T/C (second compound 1 µM, first compound 0.00316 µM): 131%
viability, T/C (second compound 1 µM, first compound 0.01 µM): 91.2%
viability, T/C [13]: 91.8%
viability, T/C [14]: 70.5%
viability, T/C (second compound 3.16 µM, first compound 0.000316 µM): 102%
viability, T/C (second compound 3.16 µM, first compound 0.001 µM): 105%
viability, T/C (second compound 3.16 µM, first compound 0.00316 µM): 97.5%
viability, T/C (second compound 3.16 µM, first compound 0.01 µM): 123%
viability, T/C [15]: 111%
viability, T/C [16]: 58.5%
viability, T/C (second compound 10 µM, first compound 0.000316 µM): 112%
viability, T/C (second compound 10 µM, first compound 0.001 µM): 110%
viability, T/C (second compound 10 µM, first compound 0.00316 µM): 111%
viability, T/C (second compound 10 µM, first compound 0.01 µM): 80.7%
viability, T/C [17]: 102%
viability, T/C [18]: 70.3%

SMILES: CC1COCCN1c1cc(C2(S(C)(=N)=O)CC2)nc(-c2ccnc3[nH]ccc23)n1 (stereo unspecified)
viability, T/C (compound 0.0316 µM): 93% and 90.1% and 105%
viability, T/C (compound 0.1 µM): 95.7% and 96.4% and 89.9%
viability, T/C (compound 0.316 µM): 86.7% and 94.9% and 95.5%
viability, T/C (compound 1 µM): 75.4% and 89.4% and 93.3%
viability, T/C (compound 3.16 µM): 57.4% and 74.8% and 62%
viability, T/C (compound 10 µM): 46.7% and 55.4% and 47%
IC50 (curve of compound): 7.04 µM and > 10 µM and 7.94 µM

SMILES: CC1COCCN1c1cc(C2(O)CC3CCC(C2)O3)c2cnn(-c3ccn[nH]3)c2n1 (stereo unspecified)
viability, T/C (compound 0.0316 µM): 79.8% and 96.8% and 76.4%
viability, T/C (compound 0.1 µM): 77% and 69.1% and 83.1%
viability, T/C (compound 0.316 µM): 57.1% and 59.1% and 53.6%
viability, T/C (compound 1 µM): 29.4% and 34.3% and 49.3%
viability, T/C (compound 3.16 µM): 27.7% and 24.9% and 49.9%
viability, T/C (compound 10 µM): 16.7% and 22% and 41.5%
IC50 (curve of compound): 0.431 µM and 0.391 µM and 0.592 µM
